From paper PMC9325410 (Clinical Pharmacology and Therapeutics, 2022)
Read-outs that look alike come from different tables or passages of the source.

How the values were obtained:
[1] = after 20 mg and 75 mg CysA doses
OATP1B1/1B3 [2] = conditions: cited from earlier work
Renal clearance = format: in vivo, human
OATP1B1/1B3 [3] = format: in vivo, human
OATP1B1/1B3 [4] = conditions: ref 17 (pitavastatin), 19 (CP-I); cited from earlier work
[5] = +CysA 20 mg, 1 h before probe cocktail
[6] = otherwise (conditions other than rosuvastatin with 1-hour interval)

| Compound | AUCR: AUC0-24 Geometric mean ratio +CysA/Control (90% CI) (OATP1B1/1B3 [3]; [5]) | AUCR: AUC0-24 Geometric mean ratio +CysA/Control (90% CI) (OATP1B1/1B3 [3]; +CysA 75 mg (-1hr)) | AUCR: AUC0-24 Geometric mean ratio +CysA/Control (90% CI) (OATP1B1/1B3 [3]; +CysA 75 mg (-3hr)) | hepatic extraction (PBPK model analysis) (OATP1B1/1B3 [4]) | change of CLR by CysA (in words) (Renal clearance; [6]) | further results |
| --- | --- | --- | --- | --- | --- | --- |
| CC[C@@H]1NC(=O)[C@H]([C@H](O)[C@H](C)C/C=C/CO)N(C)C(=O)[C@H](C(C)C)N(C)C(=O)[C@H](CC(C)C)N(C)C(=O)[C@H](CC(C)C)N(C)C(=O)[C@@H](C)NC(=O)[C@H](C)NC(=O)[C@H](CC(C)C)N(C)C(=O)[C@H](C(C)C)NC(=O)[C@H](CC(C)C)N(C)C(=O)CN(C)C1=O [AM1, Cyclosporin AM1] |  |  |  |  |  | Plasma concentrations relative to CysA (times lower) [1]: 10 times; inhibition of OATP1B1/1B3 (in words) (OATP1B1/1B3 [2]): inhibitor |
| CC1=C(CCC(=O)O)c2cc3nc(cc4[nH]c(cc5[nH]c(cc1n2)c(C)c5CCC(=O)O)c(CCC(=O)O)c4C)C(CCC(=O)O)=C3C.Cl.Cl [CP-III, Coproporphyrin III dihydrochloride] |  |  |  |  |  | reduction of CLR by CysA (Renal clearance; CysA 75 mg): 24% |
| O=C(O)C[C@H](O)C[C@H](O)/C=C/c1c(C2CC2)nc2ccccc2c1-c1ccc(F)cc1 [pitavastatin] | 1.64 | 3.46 | 2.38 | 0.43 |  |  |
| CC(C)c1nc(N(C)S(C)(=O)=O)nc(-c2ccc(F)cc2)c1/C=C/[C@@H](O)C[C@@H](O)CC(=O)O [rosuvastatin] | 1.39 | 2.16 | 1.81 |  | no significant change | change of CLR by CysA (in words) (Renal clearance; CysA administered with a 1-hour interval): decreased |
| CCCCC(=O)N(Cc1ccc(-c2ccccc2-c2nnn[nH]2)cc1)[C@H](C(=O)O)C(C)C [valsartan] | 1.43 | 1.77 | 1.85 |  | no significant change |  |
| coproporphyrin I [CP-I] |  |  |  | 0.28 |  |  |
